{
  "source": "paper PMC7317746",
  "about": "(Environmental and Molecular Mutagenesis, 2020)",
  "key": {"[1]": {"tested_on": "peripheral blood cells", "assay": "Comet assay, peripheral blood cells", "type": "in vivo, rat"}, "[2]": {"tested_on": "liver cells", "assay": "Comet assay, liver cells", "type": "in vivo, rat"}, "[3]": {"details": "1-Month Study, 200 mg/kg/day Days 28-29, Day 29, positive control"}, "[4]": {"details": "3-Day Study, 200 mg/kg/day Days 2-3, Day 3, positive control"}},
  "data": [
    {"compound": "CCOS(C)(=O)=O", "note": "[EMS, ethyl methanesulfonate]", "values": [
      {"measurement": "Blood % tail intensity mean ± SD", "setting": "[1]; [3]", "result": "26.41 ± 4.85", "unit": "%"},
      {"measurement": "Blood % tail intensity mean ± SD", "setting": "[1]; [4]", "result": "24.56 ± 1.94", "unit": "%"},
      {"measurement": "Liver % tail intensity mean ± SD", "setting": "[2]; [3]", "result": "30.79 ± 10.66", "unit": "%"},
      {"measurement": "Liver % tail intensity mean ± SD", "setting": "[2]; [4]", "result": "28.07 ± 1.64", "unit": "%"}
    ]}
  ]
}
